Assay [1] concerns the target Cyclin-dependent kinase 2/cyclin A (Homo sapiens, UniProt P24941). The experiment in a line: Inhibition of recombinant Cdk2/cyclinA. The class given is protein-complex assay.
Assay [2] can be described thus: Growth inhibition of human HeLaS3 cells. Conditions: HeLa S3. In kind it is functional.
In assay [3] the target is Cyclin-dependent kinase 2/cyclin E (Homo sapiens, UniProt P24941). The experiment in a line: Inhibition of Cdk2/cyclinE. In kind it is protein-complex assay.

Here are results for 35 compounds from ChEMBL document CHEMBL1154657, “Heterobiaryl purine derivatives as potent antiproliferative agents: inhibitors of cyclin dependent kinases. Part II” (Bioorg Med Chem Lett, 2009).

SMILES strings stand for the structures.

Consider `CC(C)n1cnc2c(NCc3ccc(-c4ccccn4)s3)nc(N[C@H]3CC[C@H](N)CC3)nc21`, for which the figures for the half-inhibitory concentration (IC50) in assay [1] and in assay [3] were 1500 nM and 44 nM, respectively. In assay [2], this compound had a 50% growth inhibitory concentration (GI50) of 270 nM.

As to `CC(C)n1cnc2c(NCc3csc(-c4ccccc4)c3)nc(N[C@H]3CC[C@H](N)CC3)nc21`, the concentration for half-maximal inhibition (IC50) came out at 250 nM in assay [1] and 85 nM in assay [3]. The GI50 in assay [2] turned out to be 370 nM.

Regarding `CC(C)n1cnc2c(NCc3ccc(-c4ccoc4)s3)nc(N[C@H]3CC[C@H](N)CC3)nc21`, the results for the half-inhibitory concentration (IC50) in assay [1] and in assay [3] were 600 nM and 200 nM, respectively. This compound also returned a 50% growth inhibitory concentration (GI50) in assay [2] of 2000 nM.

`CC(C)n1cnc2c(NCc3csc(-c4ccccc4)n3)nc(N[C@H]3CC[C@H](N)CC3)nc21`: the figures for the IC50 in assay [1] and in assay [3] were 700 nM and 400 nM, respectively. This compound displayed a 50% growth inhibitory concentration (GI50) in assay [2] of 4000 nM.

Regarding `CC(C)n1cnc2c(NCc3ccc(-n4cccc4)cc3)nc(N[C@H]3CC[C@H](N)CC3)nc21`, the IC50 in assay [1] and in assay [3] was 200 nM each time. Further, in assay [2], the 50% growth inhibitory concentration (GI50) was found to be 20 nM.

As for `CC(C)n1cnc2c(NCc3ccc(-c4ccc(F)cc4)s3)nc(N[C@H]3CC[C@H](N)CC3)nc21`, the figures for the IC50 in assay [1] and in assay [3] were 500 nM and 300 nM, respectively. This compound also showed a GI50 in assay [2] of 390 nM.

For `CC(C)n1cnc2c(NCc3ccc(-c4ccc(Cl)s4)cc3)nc(N[C@H]3CC[C@H](N)CC3)nc21`, the IC50 in assay [1] worked out at 400 nM; in assay [3], 300 nM. This compound also returned a GI50 in assay [2] of 380 nM.

For the compound `CC(C)n1cnc2c(NCc3coc(-c4ccccc4)c3)nc(N[C@H]3CC[C@H](N)CC3)nc21`, the half-maximal inhibitory concentration (IC50) in assay [1] was 300 nM; in assay [3], 150 nM. Further, growth in assay [2] was halved (GI50) at 330 nM.

As for `CC(C)n1cnc2c(NCc3ccc(-c4cccnc4)cc3)nc(N[C@H]3CC[C@H](N)CC3)nc21`, the figures for the half-maximal inhibitory concentration (IC50) in assay [1] and in assay [3] were 300 nM and 70 nM, respectively. The compound also showed a 50% growth inhibitory concentration (GI50) in assay [2] of 140 nM.

Consider `CC(C)n1cnc2c(NCc3ccc(-c4ccccc4)cc3)nc(N[C@H]3CC[C@H](N)CC3)nc21`, for which the values for the IC50 in assay [1] and in assay [3] were 400 nM and 100 nM, respectively.

Take `Cc1csc(-c2ccc(CNc3nc(N[C@H]4CC[C@H](N)CC4)nc4c3ncn4C(C)C)cc2)c1`: the half-inhibitory concentration (IC50) in assay [1] worked out at 500 nM; in assay [3] it was 200 nM. Also, in assay [2], the concentration for 50% growth inhibition (GI50) was found to be 400 nM.

Regarding `CC(C)n1cnc2c(NCc3ccc(-c4cccs4)s3)nc(N[C@H]3CC[C@H](N)CC3)nc21`, the IC50 was found to be 140 nM in assay [1] and 55 nM in assay [3]. This compound yielded a concentration for 50% growth inhibition (GI50) in assay [2] of 300 nM.

`CC(C)n1cnc2c(NCc3ccc(-c4ccco4)cc3)nc(N[C@H]3CC[C@H](N)CC3)nc21`: the half-inhibitory concentration (IC50) in assay [1] is 150 nM; in assay [3], 90 nM. This compound registered a GI50 in assay [2] of 30 nM.

As to `CC(C)n1cnc2c(NCc3ccc(-c4cccc(F)c4)s3)nc(N[C@H]3CC[C@H](N)CC3)nc21`, the IC50 was found to be 250 nM in assay [1] and 90 nM in assay [3]. In assay [2], this compound had a 50% growth inhibitory concentration (GI50) of 190 nM.

On to `CC(C)n1cnc2c(NCc3ccc(-c4ccccc4)cn3)nc(N[C@H]3CC[C@H](N)CC3)nc21`, for which the figures for the IC50 in assay [1] and in assay [3] were 500 nM and 400 nM, respectively. This compound also gave a GI50 in assay [2] of 500 nM.

As to `COc1cccc(-c2ccc(CNc3nc(N[C@H]4CC[C@H](N)CC4)nc4c3ncn4C(C)C)s2)c1`, the values for the concentration for half-maximal inhibition (IC50) in assay [1] and in assay [3] were 300 nM and 100 nM, respectively. In assay [2], it took 160 nM to inhibit growth by half (GI50).

Consider `CC(C)n1cnc2c(NCc3ccc(-c4ccccc4)nc3)nc(N[C@H]3CC[C@H](N)CC3)nc21`, for which the 50% inhibitory concentration (IC50) was found to be 100 nM in assay [1] and 40 nM in assay [3]. This compound yielded a GI50 in assay [2] of 71 nM.

In the case of `CC(C)n1cnc2c(NCc3ccc(-c4ccccn4)nc3)nc(N[C@H]3CC[C@H](N)CC3)nc21`, the concentration for half-maximal inhibition (IC50) in assay [1] was determined as 90 nM; in assay [3] it was 30 nM. This compound also returned a GI50 in assay [2] of 310 nM.

With `CC(C)n1cnc2c(NCc3ccc(-c4ccsc4)nc3)nc(N[C@H]3CC[C@H](N)CC3)nc21`, the figures for the concentration for half-maximal inhibition (IC50) in assay [1] and in assay [3] were 100 nM and under 30 nM, respectively. In assay [2], this compound gave a GI50 of 27 nM.

Take `Cc1ccc(-c2ccc(CNc3nc(N[C@H]4CC[C@H](N)CC4)nc4c3ncn4C(C)C)cc2)s1`: the figures for the IC50 in assay [1] and in assay [3] were 600 nM and 200 nM, respectively. The same compound returned a GI50 in assay [2] of 400 nM.

`CC[C@H](CO)Nc1nc(NCc2ccccc2)c2ncn(C(C)C)c2n1` [SELICICLIB] yielded a concentration for 50% growth inhibition (GI50) in assay [2] of 20000 nM.

For `Cc1cccc(-c2ccc(CNc3nc(N[C@H]4CC[C@H](N)CC4)nc4c3ncn4C(C)C)s2)c1`, the IC50 in assay [1] is 700 nM; in assay [3], 200 nM. This compound also yielded a concentration for 50% growth inhibition (GI50) in assay [2] of 200 nM.

With `CC(C)n1cnc2c(NCc3cnc(-c4ccccc4)s3)nc(N[C@H]3CC[C@H](N)CC3)nc21`, the concentration for half-maximal inhibition (IC50) in assay [1] and in assay [3] was under 50 nM throughout. In assay [2], this compound had a GI50 of 200 nM.

`CC(C)n1cnc2c(NCc3ccc(-c4ccccn4)cc3)nc(N[C@H]3CC[C@H](N)CC3)nc21`: the values for the IC50 in assay [1] and in assay [3] were 200 nM and 100 nM, respectively. This compound also registered a 50% growth inhibitory concentration (GI50) in assay [2] of 44 nM.

Take `CC(C)n1cnc2c(NCc3ccc(-c4cccc(F)c4)nc3)nc(N[C@H]3CC[C@H](N)CC3)nc21`: the concentration for half-maximal inhibition (IC50) turned out to be 80 nM in assay [1] and 40 nM in assay [3]. The same compound yielded a GI50 in assay [2] of 16 nM.

`CC(C)n1cnc2c(NCc3ccc(-n4cccn4)nc3)nc(N[C@H]3CC[C@H](N)CC3)nc21`: the concentration for half-maximal inhibition (IC50) in assay [1] came to 70 nM; in assay [3] it was 50 nM. The compound further came in with a 50% growth inhibitory concentration (GI50) in assay [2] of 20 nM.

With `CC(C)n1cnc2c(NCc3ccc(-c4ccccc4F)s3)nc(N[C@H]3CC[C@H](N)CC3)nc21`, the values for the IC50 in assay [1] and in assay [3] were 400 nM and 80 nM, respectively. For the same compound, halving of growth in assay [2] (GI50) required 300 nM.

`CC(C)n1cnc2c(NCc3ccc(-c4cccs4)nc3)nc(N[C@H]3CC[C@H](N)CC3)nc21`: in assay [1], the concentration for half-maximal inhibition (IC50) came to 900 nM. In addition, in assay [2], the GI50 came to 98 nM.

For the compound `CC(C)n1cnc2c(NCc3ccc(-n4cccn4)cc3)nc(N[C@H]3CC[C@H](N)CC3)nc21`, the results for the half-maximal inhibitory concentration (IC50) in assay [1] and in assay [3] were 140 nM and 950 nM, respectively. The compound also had a 50% growth inhibitory concentration (GI50) in assay [2] of 170 nM.

Take `Cc1csc(-c2ccc(CNc3nc(N[C@H]4CC[C@H](N)CC4)nc4c3ncn4C(C)C)s2)n1`: in assay [1], the half-inhibitory concentration (IC50) turned out to be 100 nM. In assay [2], this compound yielded a GI50 of 40 nM.

Regarding `CC(C)n1cnc2c(NCc3ccc(-c4ccsc4)s3)nc(N[C@H]3CC[C@H](N)CC3)nc21`, the IC50 in assay [1] was 300 nM; in assay [3], 200 nM. In assay [2], this compound returned a GI50 of 150 nM.

Take `CC(C)n1cnc2c(NCc3ccc(-c4ccco4)s3)nc(N[C@H]3CC[C@H](N)CC3)nc21`: the IC50 in assay [1] was determined as 200 nM; in assay [3], 100 nM. In assay [2], this compound came in with a 50% growth inhibitory concentration (GI50) of 300 nM.

On to `CC(C)n1cnc2c(NCc3ccc(-c4ccsc4)cc3)nc(N[C@H]3CC[C@H](N)CC3)nc21`, for which the half-maximal inhibitory concentration (IC50) in assay [1] came to 400 nM; in assay [3], 200 nM. In addition, the GI50 in assay [2] was 40 nM.

Take `CC(C)n1cnc2c(NCc3ccc(-c4cccs4)cc3)nc(N[C@H]3CC[C@H](N)CC3)nc21`: the IC50 in assay [1] is 100 nM; in assay [3] it was 90 nM. The compound further showed a GI50 in assay [2] of 48 nM.

Turning to `CC(C)n1cnc2c(NCc3ccc(-c4cccnc4)s3)nc(N[C@H]3CC[C@H](N)CC3)nc21`, the IC50 worked out at 200 nM in assay [1] and 100 nM in assay [3]. In assay [2], this compound displayed a GI50 of 200 nM.

A word on the IC50: it is the point on the concentration scale where inhibition reaches its midpoint. As usually defined, the GI50 is the concentration giving 50% growth inhibition.
